Data taken from patent US6737383B1, “Herbicidal oxadiazolidines” (priority 1999, dated 2004).

Columns and labels:
purple nutsedge = test: Test B pre/postemergence purple nutsedge; type: in vivo, Cyperus rotundus
How it was run: (§1)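 Test chemicals in a non-phytotoxic solvent mixture with surfactant were sprayed preemergence onto planted seeds and postemergence onto plants 2 to 18 cm tall (1- to 4-leaf stage). After twelve to sixteen days in a greenhouse, injury was visually rated against untreated controls from 0 (no effect) to 10 (complete control).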

cocklebur = test: Test B pre/postemergence cocklebur; type: in vivo, Xanthium strumarium
How it was run: as §1

giant foxtail = test: Test B pre/postemergence giant foxtail; type: in vivo, Setaria faberii
How it was run: as §1

soybean = test: Test B pre/postemergence soybean; type: in vivo, Glycine max
How it was run: as §1

rice = test: Test B flood test rice; type: in vivo, Oryza sativa
How it was run: (§2)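 Each value is a visual injury score relative to controls, with 10 meaning complete control and 0 no effect. Evaluation took place twelve to sixteen days after the 2-leaf-stage plants were treated and kept in the greenhouse.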

bedstraw = test: Test B pre/postemergence bedstraw; type: in vivo, Galium aparine
How it was run: as §1

duck salad = test: Test B flood test duck salad; type: in vivo, Heteranthera limosa
How it was run: as §2

rape = test: Test B pre/postemergence rape; type: in vivo, Brassica napus
How it was run: as §1

corn = test: Test B pre/postemergence corn; type: in vivo, Zea mays
How it was run: as §1

velvetleaf = test: Test B pre/postemergence velvetleaf; type: in vivo, Abutilon theophrasti
How it was run: as §1

smallflower flatsedge = test: Test B flood test smallflower flatsedge; type: in vivo, Cyperus difformis
How it was run: as §2

pigweed = test: Test B pre/postemergence pigweed; type: in vivo, Amaranthus retroflexus
How it was run: as §1

wild oat = test: Test B pre/postemergence wild oat; type: in vivo, Avena fatua
How it was run: as §1

morningglory = test: Test B pre/postemergence morningglory; type: in vivo, Ipomoea hederacea
How it was run: as §1

wheat = test: Test B pre/postemergence wheat; type: in vivo, Triticum aestivum
How it was run: as §1

crabgrass = test: Test B pre/postemergence crabgrass; type: in vivo, Digitaria sanguinalis
How it was run: as §1

[1] = Postemergence, Rate 62 g/ha, scale 0 to 10, 0 is no effect, 10 is complete control
[2] = Postemergence, Rate 250 g/ha, scale 0 to 10, 0 no effect, 10 complete control
[3] = Preemergence, Rate 31 g/ha, visual rating, scale 0 to 10 (0 no effect, 10 complete control)
[4] = Preemergence, Rate 62 g/ha, scale 0 to 10, 0 is no effect, 10 is complete control
[5] = Preemergence, Rate 125 g/ha, scale 0 to 10 (0 no effect, 10 complete control)
[6] = Preemergence, Rate 250 g/ha, scale of 0 to 10 where 0 is no effect and 10 is complete control
[7] = Rate 31 g/ha, Postemergence, scale 0 to 10
[8] = Rate 125 g/ha, Postemergence, scale 0 to 10, 0 no effect, 10 complete control
[9] = Rate 31 g/ha, Postemergence section (flood test species), scale 0 to 10
[10] = Rate 125 g/ha, Postemergence section (flood test species), scale 0 to 10, 0 no effect, 10 complete control
[11] = flood test, listed under Postemergence, Rate 250 g/ha, scale 0 to 10, 0 no effect, 10 complete control

CC(C)N(C(=O)n1oc(=O)n(-c2ccc(F)cc2F)c1=O)c1ccc(F)cc1F [Compound 22]
Nutsedge plant response rating (purple nutsedge; [1]): 0
Nutsedge plant response rating (purple nutsedge; [2]): 0
Nutsedge plant response rating (purple nutsedge; [3]): 0
Plant response rating, Nutsedge (purple nutsedge; [4]): 0
Plant response rating, Nutsedge (purple nutsedge; [5]): 0
Plant response rating, Nutsedge (purple nutsedge; [6]): 0
Nutsedge plant response rating (purple nutsedge; [7]): 0
Nutsedge plant response rating (purple nutsedge; [8]): 0
Cocklebur plant response rating (cocklebur; [1]): 0
Cocklebur plant response rating (cocklebur; [2]): 0
Cocklebur plant response rating (cocklebur; [3]): 0
Plant response rating, Cocklebur (cocklebur; [4]): 0
Plant response rating, Cocklebur (cocklebur; [5]): 0
Plant response rating, Cocklebur (cocklebur; [6]): 0
Cocklebur plant response rating (cocklebur; [7]): 0
Cocklebur plant response rating (cocklebur; [8]): 0
Giant foxtail plant response rating (giant foxtail; [1]): 0
Giant foxtail plant response rating (giant foxtail; [2]): 4
Giant foxtail plant response rating (giant foxtail; [3]): 3
Plant response rating, Giant foxtail (giant foxtail; [4]): 3
Plant response rating, Giant foxtail (giant foxtail; [5]): 4
Plant response rating, Giant foxtail (giant foxtail; [6]): 7
Giant foxtail plant response rating (giant foxtail; [7]): 0
Giant foxtail plant response rating (giant foxtail; [8]): 2
Soybean plant response rating (soybean; [1]): 3
Soybean plant response rating (soybean; [2]): 4
Soybean plant response rating (soybean; [3]): 0
Plant response rating, Soybean (soybean; [4]): 0
Plant response rating, Soybean (soybean; [5]): 0
Plant response rating, Soybean (soybean; [6]): 0
Soybean plant response rating (soybean; [8]): 3
Rice plant response rating (rice; [1]): 0
Rice plant response rating (rice; [9]): 0
Rice plant response rating (rice; [10]): 0
Rice plant response rating (rice; [11]): 0
Bedstraw plant response rating (bedstraw; [1]): 1
Bedstraw plant response rating (bedstraw; [2]): 4
Bedstraw plant response rating (bedstraw; [3]): 0
Plant response rating, Bedstraw (bedstraw; [4]): 0
Plant response rating, Bedstraw (bedstraw; [5]): 0
Plant response rating, Bedstraw (bedstraw; [6]): 4
Bedstraw plant response rating (bedstraw; [7]): 0
Bedstraw plant response rating (bedstraw; [8]): 2
Ducksalad plant response rating (duck salad; [1]): 0
Ducksalad plant response rating (duck salad; [9]): 0
Ducksalad plant response rating (duck salad; [10]): 0
Ducksalad plant response rating (duck salad; [11]): 0
Rape plant response rating (rape; [1]): 0
Rape plant response rating (rape; [2]): 0
Rape plant response rating (rape; [3]): 0
Plant response rating, Rape (rape; [4]): 0
Plant response rating, Rape (rape; [5]): 3
Plant response rating, Rape (rape; [6]): 3
Rape plant response rating (rape; [7]): 0
Rape plant response rating (rape; [8]): 0
Corn plant response rating (corn; [1]): 0
Corn plant response rating (corn; [2]): 0
Corn plant response rating (corn; [3]): 0
Plant response rating, Corn (corn; [4]): 0
Plant response rating, Corn (corn; [5]): 0
Plant response rating, Corn (corn; [6]): 2
Corn plant response rating (corn; [7]): 0
Corn plant response rating (corn; [8]): 0
Velvetleaf plant response rating (velvetleaf; [1]): 0
Velvetleaf plant response rating (velvetleaf; [2]): 0
Velvetleaf plant response rating (velvetleaf; [3]): 0
Plant response rating, Velvetleaf (velvetleaf; [4]): 0
Plant response rating, Velvetleaf (velvetleaf; [5]): 0
Plant response rating, Velvetleaf (velvetleaf; [6]): 1
Velvetleaf plant response rating (velvetleaf; [8]): 0
S. Flatsedge plant response rating (smallflower flatsedge; [1]): 0
S. Flatsedge plant response rating (smallflower flatsedge; [10]): 0
S. Flatsedge plant response rating (smallflower flatsedge; [11]): 4
Redroot pigweed plant response rating (pigweed; [1]): 0
Redroot pigweed plant response rating (pigweed; [2]): 2
Redroot pigweed plant response rating (pigweed; [3]): 0
Plant response rating, Redroot pigweed (pigweed; [4]): 0
Plant response rating, Redroot pigweed (pigweed; [5]): 2
Plant response rating, Redroot pigweed (pigweed; [6]): 5
Redroot pigweed plant response rating (pigweed; [7]): 0
Redroot pigweed plant response rating (pigweed; [8]): 1
Wild oats plant response rating (wild oat; [1]): 0
Wild oats plant response rating (wild oat; [2]): 1
Wild oats plant response rating (wild oat; [3]): 0
Plant response rating, Wild oats (wild oat; [5]): 0
Plant response rating, Wild oats (wild oat; [6]): 0
Wild oats plant response rating (wild oat; [8]): 0
Morningglory plant response rating (morningglory; [1]): 0
Morningglory plant response rating (morningglory; [2]): 2
Morningglory plant response rating (morningglory; [3]): 0
Plant response rating, Morningglory (morningglory; [4]): 0
Plant response rating, Morningglory (morningglory; [5]): 0
Plant response rating, Morningglory (morningglory; [6]): 0
Morningglory plant response rating (morningglory; [7]): 0
Morningglory plant response rating (morningglory; [8]): 2
Wheat plant response rating (wheat; [1]): 0
Wheat plant response rating (wheat; [2]): 0
Wheat plant response rating (wheat; [3]): 0
Plant response rating, Wheat (wheat; [4]): 0
Plant response rating, Wheat (wheat; [5]): 0
Plant response rating, Wheat (wheat; [6]): 0
Wheat plant response rating (wheat; [8]): 0
Crabgrass plant response rating (crabgrass; [1]): 0
Crabgrass plant response rating (crabgrass; [2]): 9
Crabgrass plant response rating (crabgrass; [3]): 3
Plant response rating, Crabgrass (crabgrass; [4]): 3
Plant response rating, Crabgrass (crabgrass; [5]): 4
Plant response rating, Crabgrass (crabgrass; [6]): 8
Crabgrass plant response rating (crabgrass; [7]): 0
Crabgrass plant response rating (crabgrass; [8]): 4
